Series [1] has as its target Tankyrase. The note with it: as reported in the cited publication / patent application; read-out: cellular assay: EC50; cited from earlier work.
In series [2] the target is T1, TNKS1 (Homo sapiens, UniProt O95271).
T1 construct: GST-tagged Tnks-1 (1023-1327 aa, prepared in-house); made in house
Briefly: TNKS1 activity ELISA (autoparsylation assay). The class given is biochemical. The note with it: GST-tagged Tnks-1 (1023-1327 aa). Put shortly: (§1)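 GST-tagged TNKS1 or TNKS2 captured on glutathione plates and allowed to auto-PARsylate with biotinylated NAD with or without compound. Biotin-ADP-ribosylated enzyme detected by streptavidin-HRP and luminescence; IC50 relative to inhibitor-free reaction.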
(In an ELISA, binding on a coated surface is turned into a signal by an enzyme label.)

The subject of series [3] is Tankyrases. The following applies: read-out: EC50 [M] TNKS cellular assay; DLD1 cells, 24 hours, Axin2 increase.
Series [4] can be described thus: Microsomal stability (intrinsic clearance), mouse liver microsomes. It counts as in vitro ADME. The note with it: pH 7.4. The source says:
(§2) Test Method Microsomal Stability (Intrinsic Clearance)
(§3) A microsomal stability assay is used to measure in vitro clearance (Clint). The assay involves measuring the rate of disappearance of a compound due to its intrinsic attitude to be metabolized (“intrinsic” meaning that the disappearance is not affected by other properties like permeability, binding etc. that play a role when quantifying in vivo clearance). The microsomal stability (intrinsic clearance, Clint) and thus metabolic stability is generally given as μl/min/mg protein. It can be visualized as the volume of solution that 1 mg of microsomes is able to clear of the compound in one minute.
(§4) A Tecan Genesis workstation (RSP 150/8) was used for to perform the microsomal incubations. Analysis was carried out using a Waters ACQUITY UPLC system coupled to an ABSciex API3000 mass spectrometer. Data analysis was performed using Assay Explorer (Symyx).
(§5) Chemicals • Potassium phosphate buffer: 0.05 M potassium phosphate buffer pH 7.4 containing 1 mM MgCl2 • NADPH (nicotinamide adenine dinucleotide phosphate): 22.5 mg NADPH-Na4 in 1.8 ml potassium phosphate buffer • Acetonitrile: 50 Vol % acetonitrile (1 volume acetonitrile, 1 volume water) • DMSO: 20 Vol % DMSO in water • Stock solution of 20 mg/ml human or mouse liver microsomes (protein)/ml in phosphate buffer
(§6) Stock solution of 10 mM compound in 100% DMSO
(Liver microsomes are a subcellular fraction often used to study metabolism.)

A short description of series [5]: Microsomal stability (intrinsic clearance), human liver microsomes. The class given is in vitro ADME. The note with it: pH 7.4.
From the text: as §2, §3, §4, §5, §6

Series [6] concerns the target T2, PARP-1 (Homo sapiens, UniProt P09874).
T2 construct: purchased Enzo Life Sciences GmbH, Lörrach, Germany
Briefly: PARP-1 autoparsylation assay (HTRF). It counts as biochemical. The note with it: His-tagged Parp-1, autoparsylation HTRF. The method in brief: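 His-tagged enzyme auto-modifies itself using biotinylated NAD/NAD; product detected by TR-FRET between cryptate anti-His antibody and Xlent-streptavidin, as emission ratio.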
In general terms: Time-resolved FRET reads energy transfer from a long-lived donor to a nearby acceptor.

For series [7], the target named is T3, TNKS2 (Homo sapiens, UniProt Q9H2K2).
T3 construct: GST-tagged Tnks-2 (873-1166 aa, prepared in-house); made in house
Briefly: TNKS2 activity ELISA (autoparsylation assay). The class given is biochemical. The note with it: GST-tagged Tnks-2 (873-1166 aa); read-out: IC50 [M] TNKS2 ELISA. The method in brief:
as §1

Series [8] in a line: Solubility pH 7.4. The following applies: pH 7.4, aqueous buffer. The class given is physicochemical.
Series [9] has as its system DLD-1-cancer cells. The following applies: Huang et al., 2009; Nature; cited from earlier work.

Usually EC50 stands for the concentration giving half of the maximal effect. One may read the IC50 as the midpoint of a concentration-inhibition curve. One may read the microsomal CLint as the capacity of the preparation to metabolise the compound, expressed as a volume cleared per time. A low value points to greater metabolic stability. By solubility is commonly meant the concentration that dissolves in the medium under given conditions. Low readings indicate a poorly soluble substance, high ones a readily soluble substance.

Converted amounts (≈) assume the structure as drawn.

T2 sequence (P09874 whole entry): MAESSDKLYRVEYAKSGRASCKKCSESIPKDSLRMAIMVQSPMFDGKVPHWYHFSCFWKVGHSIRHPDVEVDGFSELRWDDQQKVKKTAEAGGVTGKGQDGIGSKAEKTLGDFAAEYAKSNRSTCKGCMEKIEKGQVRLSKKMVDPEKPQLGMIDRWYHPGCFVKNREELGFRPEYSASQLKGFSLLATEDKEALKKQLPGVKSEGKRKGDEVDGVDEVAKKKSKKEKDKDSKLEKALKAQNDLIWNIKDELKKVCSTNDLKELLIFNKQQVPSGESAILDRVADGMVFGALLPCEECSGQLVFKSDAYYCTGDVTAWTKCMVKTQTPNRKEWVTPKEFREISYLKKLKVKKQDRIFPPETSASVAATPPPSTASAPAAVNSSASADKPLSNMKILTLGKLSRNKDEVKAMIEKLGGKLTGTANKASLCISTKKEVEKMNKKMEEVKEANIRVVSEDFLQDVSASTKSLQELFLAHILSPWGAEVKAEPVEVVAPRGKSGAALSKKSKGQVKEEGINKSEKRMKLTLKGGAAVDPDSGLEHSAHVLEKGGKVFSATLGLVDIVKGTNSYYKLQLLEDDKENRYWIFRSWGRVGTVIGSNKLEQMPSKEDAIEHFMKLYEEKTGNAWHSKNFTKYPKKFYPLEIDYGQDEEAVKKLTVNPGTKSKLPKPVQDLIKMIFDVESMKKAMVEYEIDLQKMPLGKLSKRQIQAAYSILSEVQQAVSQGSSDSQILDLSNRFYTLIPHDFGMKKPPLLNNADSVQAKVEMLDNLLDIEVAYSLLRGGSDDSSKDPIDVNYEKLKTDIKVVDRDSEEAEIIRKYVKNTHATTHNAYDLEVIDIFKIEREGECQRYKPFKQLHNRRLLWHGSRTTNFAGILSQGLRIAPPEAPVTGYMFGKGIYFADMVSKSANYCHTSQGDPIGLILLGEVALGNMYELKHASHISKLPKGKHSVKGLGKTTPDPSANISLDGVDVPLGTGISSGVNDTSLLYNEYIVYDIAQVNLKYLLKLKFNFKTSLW
T3 sequence (Q9H2K2 873-1166): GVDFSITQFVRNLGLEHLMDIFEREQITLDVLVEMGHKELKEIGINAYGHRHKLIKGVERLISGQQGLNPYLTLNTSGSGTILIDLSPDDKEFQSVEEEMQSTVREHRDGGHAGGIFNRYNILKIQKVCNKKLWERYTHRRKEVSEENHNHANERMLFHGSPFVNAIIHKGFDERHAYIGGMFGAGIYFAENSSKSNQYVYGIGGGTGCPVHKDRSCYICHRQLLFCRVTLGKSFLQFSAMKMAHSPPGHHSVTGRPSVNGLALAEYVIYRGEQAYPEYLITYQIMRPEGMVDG
T1 sequence (O95271 1023-1327): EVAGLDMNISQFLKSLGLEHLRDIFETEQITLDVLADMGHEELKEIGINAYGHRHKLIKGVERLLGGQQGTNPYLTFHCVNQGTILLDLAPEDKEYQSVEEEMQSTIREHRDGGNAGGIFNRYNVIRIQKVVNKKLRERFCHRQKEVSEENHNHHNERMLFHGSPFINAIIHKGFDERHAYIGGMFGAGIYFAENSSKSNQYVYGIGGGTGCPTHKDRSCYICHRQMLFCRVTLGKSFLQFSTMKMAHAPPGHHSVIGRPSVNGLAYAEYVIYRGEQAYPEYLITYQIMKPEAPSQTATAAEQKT

As for `COc1ccc(C(=O)C2CCN(CC(=O)N(Cc3nc4c(c(=O)[nH]3)COCC4)CC3CC3)CC2)cc1`, the EC50 in series [1] is 35 nM.

As to `COc1ccccc1NC(=O)c1ccc(NC(=O)CCc2nc3ccccc3c(=O)[nH]2)cc1`, the concentration giving a half-maximal response (EC50) in series [1] is 320 nM.

Turning to `COc1ccc(C(=O)C2CCN(C(=O)CCCc3nn4cccc4c(=O)[nH]3)CC2)cn1` [Compound C137, 2-{4-[4-(6-Methoxy-pyridine-3-carbonyl)-piperidin-1-yl]-4-oxo-butyl}-3H-pyrrolo[2,1-f][1,2,4]triazin-4-one], the IC50 in [2] is 1.5 nM; in series [6], 21000 nM; in series [7] it was 1e-09 M. For the same molecule, the EC50 in series [3] was 1.9e-08 M. Moreover, the microsomal CLint in series [4] is 78 µL/min/mg; in [5], 10 µL/min/mg. In addition, in [8], the solubility came to 0.07 mg/mL (≈ 165 µM).

In the case of `Cc1ccc2c(=O)[nH]c(CCCC(=O)N3CCC(C(=O)c4cnn(C)c4)CC3)nn12` [Compound C157, 7-Methyl-2-{4-[4-(1-methyl-1H-pyrazole-4-carbonyl)-piperidin-1-yl]-4-oxo-butyl}-3H-pyrrolo[2,1-f][1,2,4]triazin-4-one], the figures for the IC50 in series [2], in [6] and in series [7] were 0.31 nM, 860 nM and 2.6e-10 M, respectively. Besides, the EC50 in [3] was 2.7e-09 M. The microsomal CLint in [4] turned out to be 46 µL/min/mg; in series [5], 22 µL/min/mg. In [8], this molecule showed a solubility of 0.272 mg/mL (≈ 663 µM).

Regarding `Cn1cc(C(=O)C2CCN(C(=O)CCCc3nn4cc(F)cc4c(=O)[nH]3)CC2)cn1` [Compound C179, 6-Fluoro-2-{4-[4-(1-methyl-1H-pyrazole-4-carbonyl)-piperidin-1-yl]-4-oxo-butyl}-3H-pyrrolo[2,1-f][1,2,4]triazin-4-one], the IC50 was determined as 0.52 nM in series [2], 11000 nM in series [6] and 1.1e-09 M in [7]. For the same molecule, the EC50 in series [3] is 1.7e-08 M. Also, the microsomal CLint in series [4] stood at 29 µL/min/mg; in series [5] it was 11 µL/min/mg. In addition, in series [8], the solubility was determined as 0.058 mg/mL (≈ 140 µM).

With `COc1ccc(C(=O)C2CCN(C(=O)CCCc3nc4c(c(=O)[nH]3)COCC4)CC2)cc1C` [Compound C199, 2-{4-[4-(4-Methoxy-3-methyl-benzoyl)-piperidin-1-yl]-4-oxo-butyl}-3,5,7,8-tetrahydro-pyrano[4,3-d]pyrimidin-4-one], the IC50 in [2] is 0.27 nM; in [6] it was 2200 nM; in [7] it was 2.2e-10 M. Also, the EC50 in series [3] came to 3.3e-09 M. The microsomal CLint in series [4] turned out to be 44 µL/min/mg; in series [5], 12 µL/min/mg. The molecule further came in with a solubility in series [8] of 0.585 mg/mL (≈ 1290 µM).

On to `Cn1cc(C(=O)C2CCN(C(=O)CCCc3cn4c(F)ccc4c(=O)[nH]3)CC2)cn1` [Compound C208, 6-Fluoro-3-{4-[4-(1-methyl-1H-pyrazole-4-carbonyl)-piperidin-1-yl]-4-oxo-butyl}-2H-pyrrolo[1,2-a]pyrazin-1-one], for which the IC50 in series [2] is 0.25 nM; in [6], 6000 nM; in [7] it was 2.3e-10 M. Further, the EC50 in [3] amounted to 5.2e-09 M. In addition, the microsomal CLint in [4] was 26 µL/min/mg; in series [5], less than 10 µL/min/mg. Besides, the solubility in [8] amounted to 0.101 mg/mL (≈ 244 µM).

As to `CCn1cc(C(=O)C2CCN(C(=O)CCCc3nn4cccc4c(=O)[nH]3)CC2)cn1` [Compound C214, 2-{4-[4-(1-Ethyl-1H-pyrazole-4-carbonyl)-piperidin-1-yl]-4-oxo-butyl}-3H-pyrrolo[2,1-f][1,2,4]triazin-4-one], the IC50 in series [2] stood at 2.2 nM; in series [6] it was 8500 nM; in series [7], 1.3e-09 M. Also, the EC50 in series [3] came out at 1.5e-08 M. Also, the microsomal CLint came out at 41 µL/min/mg in [4] and 21 µL/min/mg in series [5]. For the same molecule, in [8], the solubility was determined as 0.394 mg/mL (≈ 960 µM).

For the molecule `Oc1nc(-c2ccc(C(F)(F)F)cc2)nc2c1CSCC2` [XAV939], the “growth of DLD-1-cancer cells” value in [9] was “inhibits growth”.

Source of the values: patent US9809598B2 (Merck Patent GmbH, priority 2014, dated 2017).
